Results on one compound are retold here after ChEMBL document CHEMBL6109159, “Discovery of a Potent and Selective Protein Arginine Methyltransferase 5 (PRMT5) PROTAC Degrader” (J Med Chem, 2025).

Series [1] concerns the target T1, von Hippel-Lindau disease tumor suppressor/Protein arginine N-methyltransferase 5 (Homo sapiens, UniProt O14744+P40337). The series is described as follows: PROTAC activity at […]/VHL in human MDA-MB-468 cells assessed as relative protein level at 0.5 uM measured after 24 hrs by Western blot analysis. It is filed as cell-based. A general note: Immunoblotting shows a protein as a band on a membrane.

The target in series [2] is T1, von Hippel-Lindau disease tumor suppressor/Protein arginine N-methyltransferase 5. The series is described as follows: PROTAC activity at PRMT5/VHL in human MDA-MB-468 cells assessed as maximal degradation measured after 72 hrs by Western blot analysis relative to control. It is filed as cell-based.
Series [3] concerns the target T2, von Hippel-Lindau disease tumor suppressor/Methylosome protein WDR77 (Homo sapiens, UniProt Q9BQA1+P40337). The series is described as follows: PROTAC activity at MEP50/VHL in human MDA-MB-468 cells assessed as maximal degradation measured after 72 hrs by Western blot analysis relative to control. It is filed as cell-based.
The target in series [4] is T1, von Hippel-Lindau disease tumor suppressor/Protein arginine N-methyltransferase 5. In words: PROTAC activity at PRMT5/VHL in human MDA-MB-468 cells assessed as degradation pretreated with GSKi (EPZ015666) followed by treated at 5 uM of compound after 24 hrs by Western blot analysis. The class given is cell-based.
Series [5] shares this target. In words: PROTAC activity at PRMT5/VHL in human MDA-MB-468 cells assessed as degradation pretreated with MLN4924 neddylation inhibitor followed by treated at 5 uM of compound after 24 hrs by Western blot analysis. The class given is cell-based.
Series [6] has the same target. The series is described as follows: PROTAC activity at PRMT5/VHL in VHL KO human MDA-MB-468 cells assessed as degradation at 5 uM of compound after 24 hrs by Western blot analysis. It is filed as cell-based.
The next series concerns MDA-MB-468. In words: Inhibition of sDMA (symmetric dimethylarginine) level in human MDA-MB-468 cells at 2 uM measured after 7 days by Western blot analysis. The class given is functional, cell-based. The settings on record: time 7.0 day.
In series [7] the target is T1, von Hippel-Lindau disease tumor suppressor/Protein arginine N-methyltransferase 5. The series is described as follows: PROTAC activity at PRMT5/VHL in human MCF7 cells assessed as degradation at 0.5 uM after 3 days by Western blot analysis. The class given is cell-based. The settings on record: time 3.0 day.
The target is the same in series [8]. The series is described as follows: PROTAC activity at PRMT5/VHL in human MCF7 cells assessed as degradation at 5 uM after 3 days by Western blot analysis. To be noted: time 3.0 day. It is filed as cell-based.
Series [9] concerns the target T2, von Hippel-Lindau disease tumor suppressor/Methylosome protein WDR77. The series is described as follows: PROTAC activity at MEP50/VHL in human MCF7 cells assessed as degradation at 5 uM after 3 days by Western blot analysis. It is filed as cell-based. To be noted: time 3.0 day.
Series [10] has as its target T1, von Hippel-Lindau disease tumor suppressor/Protein arginine N-methyltransferase 5. In words: PROTAC activity at PRMT5/VHL in human MDA-MB-231 cells assessed as degradation at 5 uM after 3 days by Western blot analysis. The class given is cell-based. To be noted: time 3.0 day.
Series [11] addresses T2, von Hippel-Lindau disease tumor suppressor/Methylosome protein WDR77. The series is described as follows: PROTAC activity at MEP50/VHL in human MDA-MB-231 cells assessed as degradation at 0.5 uM after 3 days by Western blot analysis. To be noted: time 3.0 day. It is filed as cell-based.
Series [12] has the same target. In words: PROTAC activity at MEP50/VHL in human MDA-MB-231 cells assessed as degradation at 5 uM after 3 days by Western blot analysis. The class given is cell-based. The settings on record: time 3.0 day.
The test system of another series is HCC70. In words: Growth inhibition of human HCC70 cells assessed as cell viability measured after 5 days by CCK-8 assay. The settings on record: time 5.0 day. The class given is functional, cell-based. (In general: Tetrazolium dyes change colour on reduction, which living cells bring about.)
Series [13] is described as follows: Plasma concentration in Swiss albino mouse at 50 mg/kg, ip measured after 8 hrs by LC-MS/MS analysis. It is filed as ADME, organism-based.
Series [14] in a line: PROTAC activity at PRMT5/VHL in human PNT2 cells assessed as degradation at 0.5 to 5 uM after 3 days by Western blot analysis. To be noted: dose 0.5-5 µM, time 3.0 day.

Activity calls are given as the source filed them. No cut-off for these calls is given here.

The term Emax denotes the size of the effect at its maximum, as opposed to the concentration needed.

T2 sequence (P40337 whole entry, looked up): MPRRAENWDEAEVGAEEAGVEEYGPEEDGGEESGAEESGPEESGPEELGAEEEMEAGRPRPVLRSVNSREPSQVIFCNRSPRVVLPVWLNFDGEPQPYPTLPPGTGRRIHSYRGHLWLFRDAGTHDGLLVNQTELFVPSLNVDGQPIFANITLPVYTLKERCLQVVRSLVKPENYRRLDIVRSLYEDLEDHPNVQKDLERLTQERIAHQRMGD
T2 sequence (Q9BQA1 whole entry, looked up): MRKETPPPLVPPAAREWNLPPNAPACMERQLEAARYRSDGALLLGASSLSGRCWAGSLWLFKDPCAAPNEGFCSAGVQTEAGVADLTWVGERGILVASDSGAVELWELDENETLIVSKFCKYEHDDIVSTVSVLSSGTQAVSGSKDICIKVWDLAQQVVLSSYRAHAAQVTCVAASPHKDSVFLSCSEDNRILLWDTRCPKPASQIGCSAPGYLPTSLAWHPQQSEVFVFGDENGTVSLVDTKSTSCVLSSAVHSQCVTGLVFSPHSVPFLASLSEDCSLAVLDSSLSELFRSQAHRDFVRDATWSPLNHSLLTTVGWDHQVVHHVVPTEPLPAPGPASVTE
T1 sequence (O14744 whole entry, looked up): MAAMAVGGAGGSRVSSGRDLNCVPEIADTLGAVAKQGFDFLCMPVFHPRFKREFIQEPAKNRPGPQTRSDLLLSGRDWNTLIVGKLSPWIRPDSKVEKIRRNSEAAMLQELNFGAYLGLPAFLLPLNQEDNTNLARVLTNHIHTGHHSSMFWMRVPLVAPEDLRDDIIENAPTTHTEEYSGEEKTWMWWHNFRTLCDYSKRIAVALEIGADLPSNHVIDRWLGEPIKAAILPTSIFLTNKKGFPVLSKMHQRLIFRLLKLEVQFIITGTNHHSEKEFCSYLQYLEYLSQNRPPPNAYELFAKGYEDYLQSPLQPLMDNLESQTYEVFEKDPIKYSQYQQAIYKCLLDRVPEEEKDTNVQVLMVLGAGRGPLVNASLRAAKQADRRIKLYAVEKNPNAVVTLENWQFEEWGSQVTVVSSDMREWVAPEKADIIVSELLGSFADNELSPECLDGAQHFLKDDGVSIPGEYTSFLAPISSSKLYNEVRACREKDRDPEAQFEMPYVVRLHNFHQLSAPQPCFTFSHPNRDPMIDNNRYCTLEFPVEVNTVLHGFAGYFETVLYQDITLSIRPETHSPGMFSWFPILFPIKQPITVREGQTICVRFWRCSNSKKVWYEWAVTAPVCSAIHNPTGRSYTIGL
T1 sequence (P40337 whole entry, looked up): as the sequence (P40337 whole entry, looked up) above

For `Cc1ncsc1-c1ccc([C@H](CC(=O)NCCOCCOCCOCCOCCOCCC(=O)N2CCC(Nc3cc(C(=O)NC[C@H](O)CN4CCc5ccccc5C4)ncn3)CC2)NC(=O)[C@@H]2C[C@@H](O)CN2C(=O)[C@@H](NC(=O)C2(F)CC2)C(C)(C)C)cc1`, the outcome in series [1], in [7], in series [8], in series [9], in [10] and in series [11] was Active. In [12], the outcome was Active. For the same compound, the maximum response (Emax) in series [2] is 86%; in [3], 91.4%. Besides, the result in series [4] and in series [5] was inactive. Besides, the Activity result in series [6] is “Not active; Complete Rescue Not Observed - Due To Incomplete Vhl Ko”; in [14], 100%. Further, the inhibition result in the series on MDA-MB-468 is “Active”. Also, the “growth inhibition (GI)” value in the series with HCC70 is “Active”. The concentration at 8 h in [13] amounted to 200 nM.
